From ChEMBL document CHEMBL5325465, “Identification of small-molecule inhibitors of human MUS81-EME1/2 by FRET-based high-throughput screening” (Bioorg Med Chem, 2023)
The source made the active and inactive calls. The rule behind the calls is not given here.

Tests used:
MUS81-ECE2 [1] = target: T1, MUS81-ECE2 (Homo sapiens, UniProt P0DPD6+Q96NY9); test: Inhibition of human GST-tagged MUS81-[…] expressed in Escherichia coli BL21(DE3)Rosetta2 cells incubated for 15 mins by FRET based assay
T1 sequence (P0DPD6 whole entry): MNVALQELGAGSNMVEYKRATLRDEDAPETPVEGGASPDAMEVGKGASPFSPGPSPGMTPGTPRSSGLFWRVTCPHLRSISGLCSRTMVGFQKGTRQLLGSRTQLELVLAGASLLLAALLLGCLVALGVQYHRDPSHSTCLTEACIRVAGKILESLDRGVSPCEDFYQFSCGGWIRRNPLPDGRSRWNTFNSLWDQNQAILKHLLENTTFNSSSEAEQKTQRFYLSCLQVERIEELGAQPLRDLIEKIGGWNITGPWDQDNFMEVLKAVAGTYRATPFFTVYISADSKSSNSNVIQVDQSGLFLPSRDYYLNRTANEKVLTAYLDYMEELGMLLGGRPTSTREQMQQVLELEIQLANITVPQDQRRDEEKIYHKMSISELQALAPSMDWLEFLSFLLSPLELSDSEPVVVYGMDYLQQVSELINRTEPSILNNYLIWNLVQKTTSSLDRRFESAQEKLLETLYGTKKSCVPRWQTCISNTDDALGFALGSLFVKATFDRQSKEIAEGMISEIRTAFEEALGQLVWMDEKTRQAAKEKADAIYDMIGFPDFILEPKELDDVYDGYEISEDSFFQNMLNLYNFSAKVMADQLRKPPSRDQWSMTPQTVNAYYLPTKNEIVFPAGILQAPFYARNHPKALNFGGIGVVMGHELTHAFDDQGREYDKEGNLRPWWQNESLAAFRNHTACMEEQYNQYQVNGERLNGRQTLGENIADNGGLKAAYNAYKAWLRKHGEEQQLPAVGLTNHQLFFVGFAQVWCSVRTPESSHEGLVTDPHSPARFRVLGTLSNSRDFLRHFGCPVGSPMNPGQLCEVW
T1 sequence (Q96NY9 whole entry): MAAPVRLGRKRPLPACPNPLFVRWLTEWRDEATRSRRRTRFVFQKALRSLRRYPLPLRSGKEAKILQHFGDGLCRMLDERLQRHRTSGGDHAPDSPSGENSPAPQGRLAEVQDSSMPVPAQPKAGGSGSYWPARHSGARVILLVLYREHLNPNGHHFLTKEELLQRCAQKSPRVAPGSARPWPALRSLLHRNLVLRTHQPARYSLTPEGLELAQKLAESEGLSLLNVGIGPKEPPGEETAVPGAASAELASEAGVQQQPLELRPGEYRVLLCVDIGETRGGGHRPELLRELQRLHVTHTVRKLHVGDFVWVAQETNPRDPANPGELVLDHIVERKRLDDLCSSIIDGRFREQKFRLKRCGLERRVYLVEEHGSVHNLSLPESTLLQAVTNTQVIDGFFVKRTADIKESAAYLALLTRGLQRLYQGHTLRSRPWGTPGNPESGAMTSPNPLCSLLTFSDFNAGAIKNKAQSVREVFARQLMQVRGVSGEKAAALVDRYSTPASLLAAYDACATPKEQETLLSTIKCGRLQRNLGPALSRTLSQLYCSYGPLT

[2] = target: T2, MUS81-ECE1 (Homo sapiens) (UniProt P42892+Q96NY9); test: Inhibition of human GST-tagged MUS81-[…] expressed in Escherichia coli BL21(DE3)Rosetta2 cells using 3' FLAP as substrate incubated for 15 mins by FRET based assay; conditions: dose 0.2-20 µM
[3] = target: T2, MUS81-ECE1 (Homo sapiens); test: Inhibition of human GST-tagged MUS81-[…] expressed in Escherichia coli BL21(DE3)Rosetta2 cells using nDS as substrate incubated for 15 mins by FRET based assay; conditions: dose 0.2-20 µM
[4] = target: T2, MUS81-ECE1 (Homo sapiens); test: Inhibition of human GST-tagged MUS81-[…] expressed in Escherichia coli BL21(DE3)Rosetta2 cells using nHJ as substrate incubated for 15 mins by FRET based assay; conditions: dose 0.2-20 µM
[5] = target: T3, MUS81-ECE2 (Homo sapiens) (UniProt P0DPD6+Q96NY9); test: Inhibition of human GST-tagged MUS81-[…] expressed in Escherichia coli BL21(DE3)Rosetta2 cells using 3' FLAP as substrate incubated for 15 mins by FRET based assay; conditions: dose 0.2-20 µM
[6] = target: T3, MUS81-ECE2 (Homo sapiens); test: Inhibition of human GST-tagged MUS81-[…] expressed in Escherichia coli BL21(DE3)Rosetta2 cells using nDS as substrate incubated for 15 mins by FRET based assay; conditions: dose 0.2-20 µM
[7] = target: T3, MUS81-ECE2 (Homo sapiens); test: Inhibition of human GST-tagged MUS81-[…] expressed in Escherichia coli BL21(DE3)Rosetta2 cells using nHJ as substrate incubated for 15 mins by FRET based assay; conditions: dose 0.2-20 µM
[8] = target: T2, MUS81-ECE1 (Homo sapiens); test: Binding affinity to human GST-tagged MUS81-[…] expressed in Escherichia coli BL21(DE3)Rosetta2 cells assessed as Kon by Surface plasmon resonance analysis
[9] = target: T2, MUS81-ECE1 (Homo sapiens); test: Binding affinity to human GST-tagged MUS81-[…] expressed in Escherichia coli BL21(DE3)Rosetta2 cells assessed as Koff by Surface plasmon resonance analysis
[10] = target: T3, MUS81-ECE2 (Homo sapiens); test: Binding affinity to human GST-tagged MUS81-[…] expressed in Escherichia coli BL21(DE3)Rosetta2 cells assessed as Kon by Surface plasmon resonance analysis
[11] = target: T3, MUS81-ECE2 (Homo sapiens); test: Binding affinity to human GST-tagged MUS81-[…] expressed in Escherichia coli BL21(DE3)Rosetta2 cells assessed as Koff by Surface plasmon resonance analysis
MUS81-ECE2 [12] = target: T1, MUS81-ECE2; test: Binding affinity to human GST-tagged MUS81-[…] expressed in Escherichia coli BL21(DE3)Rosetta2 cells assessed as dissociation constant by Surface plasmon resonance analysis
[13] = target: T2, MUS81-ECE1 (Homo sapiens); test: Binding affinity to human GST-tagged MUS81-[…] expressed in Escherichia coli BL21(DE3)Rosetta2 cells at more than 5 uM using nDS as substrate incubated for 30 mins by electrophoretic mobility shift assay
HeLa [14] = test: Inhibition of bleomycin-induced DNA-double stranded breaks in human HeLa cells assessed as reduction in gammaH2AX phosphorylation at serine 139 residue at 20 uM incubated for 1 hr by hoechst 33342 staining based immunofluorescence microscopic analysis; type: functional, cell-based
HeLa [15] = test: Inhibition of bleomycin-induced DNA-double stranded breaks in human HeLa cells assessed as reduction in gammaH2AX level by Western blot analysis; type: functional, cell-based
MDA-MB-231 [16] = test: Chemosensitivity of bleomycin-treated human MDA-MB-231 cells assessed as reduction in cell viability at 0.1 to 100 uM incubated for 24 hrs CCK-8 assay; type: functional, cell-based; conditions: dose 0.1-100 µM
MDA-MB-231 [17] = test: Chemosensitivity of cisplatin-treated human MDA-MB-231 cells assessed as reduction in cell viability at 0.1 to 100 uM incubated for 24 hrs CCK-8 assay; type: functional, cell-based; conditions: dose 0.1-100 µM
HeLa [18] = test: Chemosensitivity of bleomycin-treated human HeLa cells assessed as reduction in cell viability at 0.1 to 100 uM incubated for 24 hrs CCK-8 assay; type: functional, cell-based; conditions: dose 0.1-100 µM
HeLa [19] = test: Chemosensitivity of cisplatin-treated human HeLa cells assessed as reduction in cell viability at 0.1 to 100 uM incubated for 24 hrs CCK-8 assay; type: functional, cell-based; conditions: dose 0.1-100 µM
HepG2 [20] = test: Chemosensitivity of bleomycin-treated human HepG2 cells assessed as reduction in cell viability at 0.1 to 100 uM incubated for 24 hrs CCK-8 assay; type: functional, cell-based; conditions: dose 0.1-100 µM
HepG2 [21] = test: Chemosensitivity of cisplatin-treated human HepG2 cells assessed as reduction in cell viability at 0.1 to 100 uM incubated for 24 hrs CCK-8 assay; type: functional, cell-based; conditions: dose 0.1-100 µM
[22] = target: T2, MUS81-ECE1 (Homo sapiens); test: Inhibition of human GST-tagged MUS81-[…] expressed in Escherichia coli BL21(DE3)Rosetta2 cells using 3' FLAP as substrate at 40 uM
[23] = target: T2, MUS81-ECE1 (Homo sapiens); test: Inhibition of human GST-tagged MUS81-[…] expressed in Escherichia coli BL21(DE3)Rosetta2 cells using nDS as substrate at 40 uM
A549 [24] = test: Chemosensitivity of bleomycin-treated human A549 cells assessed as reduction in cell viability at 0.1 to 100 uM incubated for 24 hrs CCK-8 assay; type: functional, cell-based; conditions: dose 0.1-100 µM
A549 [25] = test: Chemosensitivity of cisplatin-treated human A549 cells assessed as reduction in cell viability at 0.1 to 100 uM incubated for 24 hrs CCK-8 assay; type: functional, cell-based; conditions: dose 0.1-100 µM

Structure (SMILES): O=C(N/N=C/c1cc(O)c(O)cc1O)c1cc2ccccc2cc1O
- IC50 (MUS81-ECE2 [1]): 2900 nM
- inhibition [2]: Dose-Dependent Effect
- inhibition [3]: Dose-Dependent Effect
- inhibition [4]: Dose-Dependent Effect
- inhibition [5]: Dose-Dependent Effect
- inhibition [6]: Dose-Dependent Effect
- inhibition [7]: Dose-Dependent Effect
- K [8]: 6980 M⁻¹ s⁻¹
- K [9]: 0.004 s⁻¹
- K [10]: 6420 M⁻¹ s⁻¹
- K [11]: 0.003 s⁻¹
- Kd (MUS81-ECE2 [12]): 605 nM
- Activity [13]: Active
- inhibition (HeLa [14]): Active
- inhibition (HeLa [15]): Active
- Activity (MDA-MB-231 [16]): Active
- Activity (MDA-MB-231 [17]): Active
- Activity (HeLa [18]): inactive
- Activity (HeLa [19]): inactive
- Activity (HepG2 [20]): inactive
- Activity (HepG2 [21]): inactive

Structure (SMILES): O=C(N/N=C/c1ccc(O)c(O)c1)c1cc2ccccc2cc1O [DYNASORE]
- K [8]: 934 M⁻¹ s⁻¹
- K [9]: 0.005 s⁻¹
- K [10]: 1390 M⁻¹ s⁻¹
- K [11]: 0.005 s⁻¹
- Kd (MUS81-ECE2 [12]): 4180 nM
- inhibition [22]: Active
- inhibition [23]: Active
- inhibition (HeLa [14]): inactive
- inhibition (HeLa [15]): inactive
- Activity (A549 [24]): Active
- Activity (A549 [25]): Active
- Activity (HeLa [18]): inactive
- Activity (HeLa [19]): inactive
- Activity (HepG2 [20]): inactive
- Activity (HepG2 [21]): inactive
